In BindingDB's records for doi:10.1124/mol.63.6.1223 (Case Western Reserve University, 2003) one finds Ki data, which are given here for twelve compounds.

Test [1] has as its target 5-hydroxytryptamine receptor 2B (Homo sapiens, UniProt P41595).
Test [2] addresses Sodium-dependent serotonin transporter (Rattus norvegicus, UniProt P31652).
For test [3], the target named is Sodium-dependent dopamine transporter (Rattus norvegicus, UniProt P23977).
The target in test [4] is Norepinephrine transporter (Rattus norvegicus, UniProt Q9JIA2).
The target in test [5] is Metabotropic glutamate receptor 2 (Homo sapiens, UniProt Q14416).
Test [6] has as its target Prostaglandin E2 receptor EP4 subtype (Homo sapiens, UniProt P35408).
In test [7] the target is 5-hydroxytryptamine receptor 1D (Homo sapiens, UniProt P28221).
The target of test [8] is Beta-2 adrenergic receptor (Rattus norvegicus, UniProt P10608).
Test [9] has as its target 5-hydroxytryptamine receptor 7 (Homo sapiens, UniProt P34969).
For test [10], the target named is Muscarinic acetylcholine receptor M4 (Homo sapiens, UniProt P08173).
In test [11] the target is Gamma-aminobutyric acid receptor subunit alpha-1 (Rattus norvegicus, UniProt P62813).
Test [12] addresses Muscarinic acetylcholine receptor M2 (Homo sapiens, UniProt P08172).
The target of test [13] is Acetylcholine receptor subunit alpha (Homo sapiens, UniProt P02708).
The target in test [14] is Voltage-dependent L-type calcium channel subunit alpha-1C (Rattus norvegicus, UniProt P22002).
Test [15] has as its target D(1A) dopamine receptor (Homo sapiens, UniProt P21728).
Test [16] addresses Glutamate receptor ionotropic, NMDA 1 (Rattus norvegicus, UniProt P35439).
The target in test [17] is 5-hydroxytryptamine receptor 5A (Homo sapiens, UniProt P47898).
For test [18], the target named is 5-hydroxytryptamine receptor 1A (Homo sapiens, UniProt P08908).
5-hydroxytryptamine receptor 1A, sequence (P08908 whole entry): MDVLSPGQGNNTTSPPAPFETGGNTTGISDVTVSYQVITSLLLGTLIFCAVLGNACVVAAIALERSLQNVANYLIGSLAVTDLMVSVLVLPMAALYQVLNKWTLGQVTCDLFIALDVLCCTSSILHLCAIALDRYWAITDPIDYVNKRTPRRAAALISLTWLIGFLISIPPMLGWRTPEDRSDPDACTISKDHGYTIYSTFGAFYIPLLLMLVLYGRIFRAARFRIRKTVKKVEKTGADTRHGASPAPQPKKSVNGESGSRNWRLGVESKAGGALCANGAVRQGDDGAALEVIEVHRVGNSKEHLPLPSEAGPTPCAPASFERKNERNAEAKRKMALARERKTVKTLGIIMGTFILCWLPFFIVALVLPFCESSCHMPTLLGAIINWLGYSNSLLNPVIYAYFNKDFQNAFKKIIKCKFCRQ
Test [19] has as its target Alpha-2A adrenergic receptor (Homo sapiens, UniProt P08913).
Test [20] has as its target 5-hydroxytryptamine receptor 2C (Rattus norvegicus, UniProt P08909).
Test [21] has as its target 5-hydroxytryptamine receptor 6 (Homo sapiens, UniProt P50406).
The target in test [22] is D(3) dopamine receptor (Homo sapiens, UniProt P35462).
Test [23] deals with D(2) dopamine receptor (Homo sapiens, UniProt P14416).
The target of test [24] is Sodium-dependent noradrenaline transporter (Homo sapiens, UniProt P23975).
In test [25] the target is Metabotropic glutamate receptor 8 (Rattus norvegicus, UniProt P70579).
For test [26], the target named is Gamma-aminobutyric acid (GABA) B receptor 1 (Rattus norvegicus, UniProt Q6MFX8).
Test [27] has as its target D(4) dopamine receptor (Rattus norvegicus, UniProt P30729).
In test [28] the target is 5-hydroxytryptamine receptor 1B (Homo sapiens, UniProt P28222).
In test [29] the target is Histamine H1 receptor (Homo sapiens, UniProt P35367).
The target of test [30] is Cannabinoid receptor 1 (Rattus norvegicus, UniProt P20272).
Test [31] addresses Alpha-1A adrenergic receptor (Homo sapiens, UniProt P35348).
Test [32] deals with Muscarinic acetylcholine receptor M5 (Homo sapiens, UniProt P08912).
Muscarinic acetylcholine receptor M5, sequence (P08912 whole entry): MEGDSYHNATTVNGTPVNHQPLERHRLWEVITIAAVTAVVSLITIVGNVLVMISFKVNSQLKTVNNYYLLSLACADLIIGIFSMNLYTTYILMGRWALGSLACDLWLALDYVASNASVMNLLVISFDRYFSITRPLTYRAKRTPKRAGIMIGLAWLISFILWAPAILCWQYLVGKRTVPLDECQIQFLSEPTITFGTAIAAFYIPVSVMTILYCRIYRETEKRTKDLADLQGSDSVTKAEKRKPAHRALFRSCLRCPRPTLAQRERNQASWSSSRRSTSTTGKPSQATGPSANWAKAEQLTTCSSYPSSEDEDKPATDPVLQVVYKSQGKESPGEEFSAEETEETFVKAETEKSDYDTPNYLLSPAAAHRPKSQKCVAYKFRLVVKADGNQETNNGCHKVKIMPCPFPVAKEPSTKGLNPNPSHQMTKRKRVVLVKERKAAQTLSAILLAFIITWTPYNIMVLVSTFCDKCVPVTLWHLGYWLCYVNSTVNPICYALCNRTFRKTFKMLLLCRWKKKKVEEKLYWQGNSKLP
The target in test [33] is D(1B) dopamine receptor (Homo sapiens, UniProt P21918).
In test [34] the target is Neuronal acetylcholine receptor subunit alpha-3 (Homo sapiens, UniProt P32297).
Test [35] has as its target Prostaglandin E2 receptor EP3 subtype (Homo sapiens, UniProt P43115).
Test [36] concerns the target Metabotropic glutamate receptor 4 (Rattus norvegicus, UniProt P31423).
Test [37] concerns the target Beta-1 adrenergic receptor (Rattus norvegicus, UniProt P18090).
Test [38] has as its target Alpha-2C adrenergic receptor (Homo sapiens, UniProt P18825).
Test [39] has as its target Muscarinic acetylcholine receptor M1 (Homo sapiens, UniProt P11229).
For test [40], the target named is Metabotropic glutamate receptor 1 (Rattus norvegicus, UniProt P23385).
Test [41] addresses Sodium-dependent dopamine transporter (Homo sapiens, UniProt Q01959).

The Ki is a dissociation constant, usually derived from enzyme kinetics or from competition with a known ligand.

Several values for one entry are separate records, joined by “and”; a condition that tells them apart may be missing. Equal entries are not always repeated.

Sodium-dependent serotonin transporter, sequence (P31652 whole entry): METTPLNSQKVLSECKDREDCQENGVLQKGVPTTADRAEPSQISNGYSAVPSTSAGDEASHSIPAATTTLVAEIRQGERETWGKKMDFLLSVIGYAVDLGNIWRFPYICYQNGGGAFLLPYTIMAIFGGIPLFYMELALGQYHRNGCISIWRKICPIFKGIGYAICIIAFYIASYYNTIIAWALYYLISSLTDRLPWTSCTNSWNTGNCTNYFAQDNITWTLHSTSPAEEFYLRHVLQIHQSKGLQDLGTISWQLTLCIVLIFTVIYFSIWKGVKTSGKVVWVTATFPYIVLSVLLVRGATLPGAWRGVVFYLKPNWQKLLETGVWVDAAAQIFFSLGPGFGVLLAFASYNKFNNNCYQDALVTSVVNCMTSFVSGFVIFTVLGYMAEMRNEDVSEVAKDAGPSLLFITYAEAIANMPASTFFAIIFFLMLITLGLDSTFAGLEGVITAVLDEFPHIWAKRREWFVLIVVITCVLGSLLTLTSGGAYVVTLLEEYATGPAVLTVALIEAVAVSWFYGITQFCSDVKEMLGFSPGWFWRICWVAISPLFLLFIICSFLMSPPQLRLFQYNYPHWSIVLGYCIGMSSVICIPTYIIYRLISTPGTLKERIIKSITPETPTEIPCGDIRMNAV
5-hydroxytryptamine receptor 2B, sequence (P41595 whole entry): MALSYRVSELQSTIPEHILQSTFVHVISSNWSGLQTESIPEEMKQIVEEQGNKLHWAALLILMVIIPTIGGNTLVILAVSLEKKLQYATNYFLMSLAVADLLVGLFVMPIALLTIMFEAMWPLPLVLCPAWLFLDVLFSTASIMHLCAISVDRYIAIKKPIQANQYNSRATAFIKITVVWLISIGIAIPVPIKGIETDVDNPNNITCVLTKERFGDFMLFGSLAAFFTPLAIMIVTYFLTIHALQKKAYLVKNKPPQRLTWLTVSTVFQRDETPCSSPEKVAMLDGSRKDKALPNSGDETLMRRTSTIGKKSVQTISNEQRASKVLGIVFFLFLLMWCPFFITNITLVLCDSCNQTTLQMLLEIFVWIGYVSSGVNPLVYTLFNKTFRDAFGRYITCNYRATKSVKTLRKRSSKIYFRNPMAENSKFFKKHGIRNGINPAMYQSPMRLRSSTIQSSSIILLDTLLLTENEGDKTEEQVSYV
Sodium-dependent dopamine transporter (Rattus norvegicus, UniProt P23977), sequence (P23977 whole entry): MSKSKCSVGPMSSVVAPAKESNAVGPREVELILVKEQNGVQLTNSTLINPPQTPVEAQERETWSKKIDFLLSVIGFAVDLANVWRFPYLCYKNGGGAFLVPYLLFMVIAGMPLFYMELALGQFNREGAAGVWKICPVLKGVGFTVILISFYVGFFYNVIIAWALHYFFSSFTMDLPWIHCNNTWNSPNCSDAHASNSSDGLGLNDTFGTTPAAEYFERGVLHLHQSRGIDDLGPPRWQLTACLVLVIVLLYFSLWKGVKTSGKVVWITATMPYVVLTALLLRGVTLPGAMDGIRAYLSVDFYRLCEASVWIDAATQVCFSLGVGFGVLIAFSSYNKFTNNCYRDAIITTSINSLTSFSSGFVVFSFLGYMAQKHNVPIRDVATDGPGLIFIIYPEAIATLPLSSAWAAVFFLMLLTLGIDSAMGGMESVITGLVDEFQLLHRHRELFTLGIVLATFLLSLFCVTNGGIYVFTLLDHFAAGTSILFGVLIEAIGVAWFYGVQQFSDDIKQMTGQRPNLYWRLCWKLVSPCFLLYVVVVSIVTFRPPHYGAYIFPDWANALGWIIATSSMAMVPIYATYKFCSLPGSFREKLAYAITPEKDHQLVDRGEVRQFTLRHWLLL
Alpha-2C adrenergic receptor, sequence (P18825 whole entry): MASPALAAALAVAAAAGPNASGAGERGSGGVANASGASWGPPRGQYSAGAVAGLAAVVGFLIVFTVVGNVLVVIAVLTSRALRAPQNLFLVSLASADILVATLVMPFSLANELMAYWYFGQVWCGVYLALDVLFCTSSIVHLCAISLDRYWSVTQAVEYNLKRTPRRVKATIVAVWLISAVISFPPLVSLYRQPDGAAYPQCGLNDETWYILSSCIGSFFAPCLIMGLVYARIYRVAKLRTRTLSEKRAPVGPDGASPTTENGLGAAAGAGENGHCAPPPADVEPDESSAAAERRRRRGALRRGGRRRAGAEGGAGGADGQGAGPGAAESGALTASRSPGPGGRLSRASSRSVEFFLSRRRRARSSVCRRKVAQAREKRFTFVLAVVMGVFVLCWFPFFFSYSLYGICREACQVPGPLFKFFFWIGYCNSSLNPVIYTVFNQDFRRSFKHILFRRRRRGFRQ
Metabotropic glutamate receptor 4, sequence (P31423 whole entry): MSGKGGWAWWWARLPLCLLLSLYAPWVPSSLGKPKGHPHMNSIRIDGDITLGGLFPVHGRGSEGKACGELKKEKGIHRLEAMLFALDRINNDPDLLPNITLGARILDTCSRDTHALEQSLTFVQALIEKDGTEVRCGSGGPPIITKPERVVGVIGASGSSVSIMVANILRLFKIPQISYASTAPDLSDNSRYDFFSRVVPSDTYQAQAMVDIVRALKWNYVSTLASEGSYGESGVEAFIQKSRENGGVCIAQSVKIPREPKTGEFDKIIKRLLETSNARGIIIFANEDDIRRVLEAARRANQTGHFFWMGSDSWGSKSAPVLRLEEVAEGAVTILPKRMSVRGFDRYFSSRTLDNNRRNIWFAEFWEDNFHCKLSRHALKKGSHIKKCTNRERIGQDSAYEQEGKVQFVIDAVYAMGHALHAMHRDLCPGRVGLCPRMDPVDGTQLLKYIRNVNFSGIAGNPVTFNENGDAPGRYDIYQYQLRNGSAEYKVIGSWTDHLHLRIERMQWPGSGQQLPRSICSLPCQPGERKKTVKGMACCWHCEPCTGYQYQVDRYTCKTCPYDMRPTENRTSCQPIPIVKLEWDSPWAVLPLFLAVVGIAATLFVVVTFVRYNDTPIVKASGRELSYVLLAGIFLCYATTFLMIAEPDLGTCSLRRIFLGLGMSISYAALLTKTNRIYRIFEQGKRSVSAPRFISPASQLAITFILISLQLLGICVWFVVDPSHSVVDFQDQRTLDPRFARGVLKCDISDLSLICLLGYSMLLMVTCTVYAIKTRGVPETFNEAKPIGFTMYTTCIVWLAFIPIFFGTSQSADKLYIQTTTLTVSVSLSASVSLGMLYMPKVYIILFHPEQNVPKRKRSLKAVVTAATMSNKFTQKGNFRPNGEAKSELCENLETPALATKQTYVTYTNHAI
Beta-1 adrenergic receptor, sequence (P18090 whole entry): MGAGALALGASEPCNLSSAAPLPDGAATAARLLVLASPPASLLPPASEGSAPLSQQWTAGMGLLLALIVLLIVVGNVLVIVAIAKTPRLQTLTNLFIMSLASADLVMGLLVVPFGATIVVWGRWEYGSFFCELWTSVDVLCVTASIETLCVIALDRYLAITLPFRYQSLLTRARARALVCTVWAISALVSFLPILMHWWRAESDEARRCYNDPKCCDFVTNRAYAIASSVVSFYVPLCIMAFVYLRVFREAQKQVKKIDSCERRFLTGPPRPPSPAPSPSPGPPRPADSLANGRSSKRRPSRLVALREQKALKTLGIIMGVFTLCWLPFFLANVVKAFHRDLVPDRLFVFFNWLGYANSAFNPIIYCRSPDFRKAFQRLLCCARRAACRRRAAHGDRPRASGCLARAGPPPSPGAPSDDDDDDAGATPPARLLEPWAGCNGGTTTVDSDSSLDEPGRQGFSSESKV
Alpha-2A adrenergic receptor, sequence (P08913 whole entry): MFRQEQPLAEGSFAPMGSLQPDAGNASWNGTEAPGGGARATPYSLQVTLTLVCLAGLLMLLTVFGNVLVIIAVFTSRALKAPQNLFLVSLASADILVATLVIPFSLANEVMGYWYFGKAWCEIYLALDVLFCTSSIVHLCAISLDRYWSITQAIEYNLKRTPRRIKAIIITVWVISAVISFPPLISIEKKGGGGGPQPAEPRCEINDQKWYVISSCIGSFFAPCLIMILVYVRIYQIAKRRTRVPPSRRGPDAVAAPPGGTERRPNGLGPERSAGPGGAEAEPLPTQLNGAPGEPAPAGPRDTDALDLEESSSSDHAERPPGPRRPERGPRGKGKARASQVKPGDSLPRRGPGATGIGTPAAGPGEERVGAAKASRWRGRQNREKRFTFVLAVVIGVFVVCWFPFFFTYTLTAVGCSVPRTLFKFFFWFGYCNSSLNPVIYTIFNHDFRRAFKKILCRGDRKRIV

For `C[C@H](N)Cc1ccc2c(c1)OCO2` [NSC_3050061], the Ki in [1] was 100 nM; in [2], 100 nM; in test [3] it was 98 nM; in test [4], 50 nM.

In the case of `CC(N)Cc1ccc2c(c1)OCO2` (stereo unspecified), the Ki in [1] is 100 nM and 190 nM; in [2], 160 nM; in test [3], 190 nM; in test [4] it was 108 nM.

In the case of `CN[C@@H](C)Cc1ccc2c(c1)OCO2` [DL-(3,4-Methylenedioxy)methamphetamine], the Ki in test [5] is greater than 10000 nM; in test [6], greater than 10000 nM; in test [7], greater than 10000 nM; in test [8] it was greater than 10000 nM; in test [1], 500 nM and 2000 nM; in [9], greater than 10000 nM. In addition, the inhibition constant (Ki) in [10] was 8240 nM; in [11], greater than 10000 nM; in test [12] it was greater than 10000 nM; in test [13], greater than 10000 nM; in test [14] it was 1200 nM; in test [15], greater than 10000 nM. The Ki in [16] was greater than 10000 nM; in test [17], greater than 10000 nM; in test [18] it was greater than 10000 nM; in test [19], 2530 nM; in test [20], greater than 10000 nM; in test [21], greater than 10000 nM. Further, the Ki in test [22] is greater than 10000 nM; in [23], greater than 10000 nM; in [24], greater than 10000 nM; in [25], greater than 10000 nM; in [26] it was greater than 10000 nM; in test [2] it was 72 nM. The Ki in [27] is greater than 10000 nM; in test [28], greater than 10000 nM; in test [3] it was 278 nM; in test [29], 2140 nM; in test [4], 110 nM; in test [30], greater than 10000 nM. The Ki is greater than 10000 nM in [31]; 6340 nM in test [32]; greater than 10000 nM in test [33]; greater than 10000 nM in test [34]; greater than 10000 nM in test [35]; greater than 10000 nM in test [36]. Moreover, the inhibitory constant (Ki) is greater than 10000 nM in test [37]; 1120 nM in test [38]; greater than 10000 nM in test [39]; greater than 10000 nM in [40]; greater than 10000 nM in [41].

`C[C@@H](N)Cc1ccc2c(c1)OCO2` [NSC_3046161]: the Ki in test [1] was determined as 150 nM; in test [2], 310 nM; in test [3], 900 nM; in test [4], 290 nM.

On to `CCNC(C)Cc1cccc(C(F)(F)F)c1` (stereo unspecified) [NSC_3337], for which the Ki in test [3] is greater than 10000 nM.

Regarding `CN[C@H](C)Cc1ccc2c(c1)OCO2` [NSC_126235], the Ki in test [1] came to 6000 nM; in test [2], 74 nM; in test [3] it was 142 nM; in test [4], 136 nM.

In the case of `NCCc1c[nH]c2ccc(O)cc12` [[3H]-5-HT], the Ki in test [3] and in [4] was greater than 10000 nM each time.

Take `CCC(CO)NC(=O)C1C=C2c3cccc4[nH]cc(c34)CC2N(C)C1` (stereo unspecified) [NSC_8226]: in test [1], the affinity, expressed as Ki, was 0.8 nM.

As for `CN1CC(C(=O)NC2(C)OC3(O)C4CCCN4C(=O)C(Cc4ccccc4)N3C2=O)CC2c3cccc4[nH]cc(c34)CC21` (stereo unspecified) [NSC_3066], the inhibition constant (Ki) in test [1] is 15.2 nM and 30 nM.

Regarding `CN[C@@H](C)Cc1ccc2c(c1)OCO2` [MDMA, R(-)], the Ki was found to be 900 nM in test [1], 340 nM in test [2], 3700 nM in test [3] and 560 nM in test [4].

With `CC(N)Cc1cccc(C(F)(F)F)c1` (stereo unspecified) [NSC_15897], the Ki in test [1] is 15 nM and 60 nM; in [2], 104 nM; in test [3], 1900 nM; in [4], 170 nM.

As to `CCCN1CC(CSC)CC2c3cccc4[nH]cc(c34)CC21` (stereo unspecified) [CAS_66104-22-1], the Ki in test [1] is 14 nM and 53 nM.
